# In PubChem BioAssay (NCI):
#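 Interpolation was linear, between the two tested concentrations surrounding the appropriate level; five concentrations were tested over 48 hours in 96-well plates. TGI denotes the concentration required for complete inhibition of growth.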
# Key:
# Assay in all cases: DTP human tumour cell line panel, 48 h
# CAKI-1 renal = system: CAKI-1 renal
# SF-268 CNS = system: SF-268 CNS
# OVCAR-5 ovarian = system: OVCAR-5 ovarian
# KM12 colon = system: KM12 colon
# M14 melanoma = system: M14 melanoma
# SN12C renal = system: SN12C renal
# HOP-62 NSCLC = system: HOP-62 NSCLC
# MCF7 breast = system: MCF7 breast
# NCI-H23 lung = system: NCI-H23 lung
# EKVX NSCLC = system: EKVX NSCLC
# U251 CNS = system: U251 CNS
# MDA-MB-231 breast = system: MDA-MB-231 breast
# MDA-N = system: MDA-N
# HCT-15 colon = system: HCT-15 colon
# BT-549 breast = system: BT-549 breast
# UACC-62 melanoma = system: UACC-62 melanoma
# IGROV1 ovarian = system: IGROV1 ovarian
# HL-60(TB) leukemia = system: HL-60(TB) leukemia
# HCC-2998 colon = system: HCC-2998 colon
# T-47D breast = system: T-47D breast
# UO-31 renal = system: UO-31 renal
# RXF 393 renal = system: RXF 393 renal
# MALME-3M melanoma = system: MALME-3M melanoma
# LOX IMVI melanoma = system: LOX IMVI melanoma
# SNB-75 CNS = system: SNB-75 CNS
# SR leukemia = system: SR leukemia
# NCI-H522 lung = system: NCI-H522 lung
# NCI-H226 lung = system: NCI-H226 lung
# HS 578T breast = system: HS 578T breast
# PC-3 prostate = system: PC-3 prostate
# K-562 leukemia = system: K-562 leukemia
# UACC-257 melanoma = system: UACC-257 melanoma
# NCI-H460 lung = system: NCI-H460 lung
# HT29 colon = system: HT29 colon
# HOP-92 NSCLC = system: HOP-92 NSCLC
# SNB-19 CNS = system: SNB-19 CNS
# SF-295 CNS = system: SF-295 CNS
# ACHN renal = system: ACHN renal
# OVCAR-8 ovarian = system: OVCAR-8 ovarian
# 786-0 renal = system: 786-0 renal
# DU-145 prostate = system: DU-145 prostate
# OVCAR-4 ovarian = system: OVCAR-4 ovarian
# OVCAR-3 ovarian = system: OVCAR-3 ovarian
# COLO 205 colon = system: COLO 205 colon
# A549 NSCLC = system: A549 NSCLC
# SK-MEL-28 melanoma = system: SK-MEL-28 melanoma
# HCT-116 colon = system: HCT-116 colon
# NCI/ADR-RES ovarian = system: NCI/ADR-RES ovarian
# CCRF-CEM leukemia = system: CCRF-CEM leukemia
# SW-620 colon = system: SW-620 colon
# SF-539 CNS = system: SF-539 CNS
# A498 renal = system: A498 renal
# SK-OV-3 ovarian = system: SK-OV-3 ovarian
# TK-10 renal = system: TK-10 renal
# MOLT-4 leukemia = system: MOLT-4 leukemia
# RPMI-8226 leukemia = system: RPMI-8226 leukemia
# SK-MEL-5 melanoma = system: SK-MEL-5 melanoma
# SK-MEL-2 melanoma = system: SK-MEL-2 melanoma
# MDA-MB-435 = system: MDA-MB-435
structure (smiles),measurement,setting,value
CC(C)=CCc1c(O)c(CC=C(C)C)c2oc(-c3ccc(O)cc3O)c(CC=C(C)C)c(=O)c2c1O,TGI,CAKI-1 renal,25.4 µM
same,TGI,SF-268 CNS,> 53.2 µM
same,TGI,OVCAR-5 ovarian,28.3 µM
same,TGI,KM12 colon,16.7 µM
same,TGI,M14 melanoma,22.5 µM
same,TGI,SN12C renal,21.1 µM
same,TGI,HOP-62 NSCLC,23.4 µM
same,TGI,MCF7 breast,18.3 µM
same,TGI,NCI-H23 lung,22 µM
same,TGI,EKVX NSCLC,27.9 µM
same,TGI,U251 CNS,22.8 µM
same,TGI,MDA-MB-231 breast,27.6 µM
same,TGI,MDA-N,20.4 µM
same,TGI,HCT-15 colon,23.8 µM
same,TGI,BT-549 breast,21.6 µM
same,TGI,UACC-62 melanoma,20.3 µM
same,TGI,IGROV1 ovarian,23.6 µM
same,TGI,HL-60(TB) leukemia,21.7 µM
same,TGI,HCC-2998 colon,11.7 µM
same,TGI,T-47D breast,12.8 µM
same,TGI,UO-31 renal,21.1 µM
same,TGI,RXF 393 renal,14.6 µM
same,TGI,MALME-3M melanoma,33.4 µM
same,TGI,LOX IMVI melanoma,22.5 µM
same,TGI,SNB-75 CNS,22.7 µM
same,TGI,SR leukemia,9.88 µM
same,TGI,NCI-H522 lung,24.9 µM
same,TGI,NCI-H226 lung,47.6 µM
same,TGI,HS 578T breast,45.6 µM
same,TGI,PC-3 prostate,18.4 µM
same,TGI,K-562 leukemia,27.4 µM
same,TGI,UACC-257 melanoma,25.6 µM
same,TGI,NCI-H460 lung,17.8 µM
same,TGI,HT29 colon,22.8 µM
same,TGI,HOP-92 NSCLC,23 µM
same,TGI,SNB-19 CNS,25.6 µM
same,TGI,SF-295 CNS,20.3 µM
same,TGI,ACHN renal,20.9 µM
same,TGI,OVCAR-8 ovarian,19.7 µM
same,TGI,786-0 renal,21.4 µM
same,TGI,DU-145 prostate,25.2 µM
same,TGI,OVCAR-4 ovarian,18.1 µM
same,TGI,OVCAR-3 ovarian,19.6 µM
same,TGI,COLO 205 colon,> 59.5 µM
same,TGI,A549 NSCLC,24.2 µM
same,TGI,SK-MEL-28 melanoma,26.6 µM
same,TGI,HCT-116 colon,17 µM
same,TGI,NCI/ADR-RES ovarian,53.4 µM
same,TGI,CCRF-CEM leukemia,5.83 µM
same,TGI,SW-620 colon,23.3 µM
same,TGI,SF-539 CNS,32.7 µM
same,TGI,A498 renal,27.3 µM
same,TGI,SK-OV-3 ovarian,26.2 µM
same,TGI,TK-10 renal,21.2 µM
same,TGI,MOLT-4 leukemia,14.6 µM
same,TGI,RPMI-8226 leukemia,10.9 µM
same,TGI,SK-MEL-5 melanoma,23 µM
same,TGI,SK-MEL-2 melanoma,12.8 µM
same,TGI,MDA-MB-435,16.7 µM
COP(=O)(OC)/C(=C/c1c[nH]c2ccccc12)C(=O)O,TGI,CAKI-1 renal,> 100 µM
same,TGI,OVCAR-5 ovarian,> 100 µM
same,TGI,KM12 colon,> 100 µM
same,TGI,M14 melanoma,> 100 µM
same,TGI,SN12C renal,> 100 µM
same,TGI,HOP-62 NSCLC,> 100 µM
same,TGI,MCF7 breast,> 100 µM
same,TGI,NCI-H23 lung,> 100 µM
same,TGI,EKVX NSCLC,> 100 µM
same,TGI,U251 CNS,> 100 µM
same,TGI,MDA-MB-231 breast,> 100 µM
same,TGI,MDA-N,> 100 µM
same,TGI,HCT-15 colon,> 100 µM
same,TGI,BT-549 breast,> 100 µM
same,TGI,UACC-62 melanoma,> 100 µM
same,TGI,IGROV1 ovarian,> 100 µM
same,TGI,HL-60(TB) leukemia,> 100 µM
same,TGI,HCC-2998 colon,> 100 µM
same,TGI,T-47D breast,> 100 µM
same,TGI,UO-31 renal,> 100 µM
same,TGI,RXF 393 renal,> 100 µM
same,TGI,MALME-3M melanoma,> 100 µM
same,TGI,LOX IMVI melanoma,> 100 µM
same,TGI,SNB-75 CNS,> 100 µM
same,TGI,SR leukemia,> 100 µM
same,TGI,NCI-H522 lung,> 100 µM
same,TGI,NCI-H226 lung,> 100 µM
same,TGI,HS 578T breast,> 100 µM
same,TGI,PC-3 prostate,> 100 µM
same,TGI,K-562 leukemia,> 100 µM
same,TGI,NCI-H460 lung,> 100 µM
same,TGI,HT29 colon,> 100 µM
same,TGI,HOP-92 NSCLC,> 100 µM
same,TGI,SNB-19 CNS,> 100 µM
same,TGI,SF-295 CNS,> 100 µM
same,TGI,ACHN renal,> 100 µM
same,TGI,OVCAR-8 ovarian,> 100 µM
same,TGI,786-0 renal,> 100 µM
same,TGI,DU-145 prostate,> 100 µM
same,TGI,OVCAR-4 ovarian,> 100 µM
same,TGI,OVCAR-3 ovarian,> 100 µM
same,TGI,COLO 205 colon,> 100 µM
same,TGI,A549 NSCLC,> 100 µM
same,TGI,SK-MEL-28 melanoma,> 100 µM
same,TGI,HCT-116 colon,> 100 µM
same,TGI,NCI/ADR-RES ovarian,> 100 µM
same,TGI,CCRF-CEM leukemia,> 100 µM
same,TGI,SW-620 colon,> 100 µM
same,TGI,SF-539 CNS,> 100 µM
same,TGI,A498 renal,> 100 µM
same,TGI,SK-OV-3 ovarian,> 100 µM
same,TGI,TK-10 renal,> 100 µM
same,TGI,MOLT-4 leukemia,> 100 µM
same,TGI,RPMI-8226 leukemia,> 100 µM
same,TGI,SK-MEL-5 melanoma,> 100 µM
same,TGI,SK-MEL-2 melanoma,> 100 µM
same,TGI,MDA-MB-435,> 100 µM
